# Source: patent publication US8829034B2, “Compounds which modulate the CB2 receptor” (Boehringer Ingerlheim International GmbH, priority 2006, dated 2014)
# Where two headings read alike, the source gives them in different places.
# Molecular target: T1, human CB2R (Homo sapiens, UniProt P34972)
# T1 construct: host or cells: CHO cells
# Assay: CB2R mediated modulation of cAMP synthesis
# Type: cell-based
# Settings: for agonistic activity: found through the use of the above described assays
# Summary of the method: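 CHO cells expressing human CB2R were treated with compound for 30 min at 37 °C in buffer containing 1 mM IBMX, 0.25% BSA and 10 uM forskolin. cAMP was measured after lysis. EC50 was taken as 50% inhibition of forskolin-stimulated cAMP, with 100% defined by 1 uM CP55940, using a four-parameter logistic fit.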
# T1 sequence (P34972 whole entry): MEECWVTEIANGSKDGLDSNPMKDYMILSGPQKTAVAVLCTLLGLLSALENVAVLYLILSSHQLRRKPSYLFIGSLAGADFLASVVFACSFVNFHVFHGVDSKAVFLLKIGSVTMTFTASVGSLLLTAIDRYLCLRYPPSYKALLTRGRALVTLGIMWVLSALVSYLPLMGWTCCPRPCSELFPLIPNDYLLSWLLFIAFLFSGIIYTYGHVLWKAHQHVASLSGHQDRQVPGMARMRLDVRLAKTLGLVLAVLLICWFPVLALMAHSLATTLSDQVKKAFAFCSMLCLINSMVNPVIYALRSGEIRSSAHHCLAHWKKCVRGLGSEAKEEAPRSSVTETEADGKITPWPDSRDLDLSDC
SMILES,EC50 [nM],agonistic activity,"EC50 (CHO cells expressing human CB2R, inhibition of forskolin-stimulated cAMP synthesis, compounds having agonist activity, read-out: CB2 EC50) [nM]"
CC(C)(C)c1cc(NC(=O)C(C)(C)S(=O)(=O)CC2CCN(S(C)(=O)=O)C2)no1 (stereo not drawn) [N-(5-tert-Butyl-isoxazol-3-yl)-2-(1-methanesulfonyl-pyrrolidin-3-ylmethanesulfonyl)-2-methyl-propionamide],44.1,agonistic activity,–
"CC(C)(C)C(=O)CS(=O)(=O)C(C)(C)C(=O)Nc1cc(C(C)(C)C)on1 [N-(5-tert-Butyl-isoxazol-3-yl)-2-(3,3-dimethyl-2-oxo-butane-1-sulfonyl)-2-methyl-propionamide]",39.8,agonistic activity,–
CC(C)(C)c1cc(NC(=O)C(C)(C)S(=O)(=O)Cc2ccc(Cl)cc2)no1 [N-(5-tert-Butyl-isoxazol-3-yl)-2-(4-chloro-phenylmethanesulfonyl)-2-methyl-propionamide],16.6,agonistic activity,–
CC(C)(C)c1cc(NC(=O)C(C)(C)S(=O)(=O)CC#N)no1 [N-(5-tert-Butyl-isoxazol-3-yl)-2-cyanomethanesulfonyl-2-methyl-propionamide],–,agonistic activity,–
CC(C)(C)c1cc(NC(=O)C(C)(C)S(=O)(=O)CC2CCC2)no1 [N-(5-tert-Butyl-isoxazol-3-yl)-2-cyclobutylmethanesulfonyl-2-methyl-propionamide],3.4,agonistic activity,–
CC(C)(C)c1cc(NC(=O)C(C)(C)S(=O)(=O)C2CCCCCC2)no1 [N-(5-tert-Butyl-isoxazol-3-yl)-2-cycloheptanesulfonyl-2-methyl-propionamide],0.1,agonistic activity,–
CC(C)(C)c1cc(NC(=O)C(C)(C)S(=O)(=O)C2CCCCC2)no1 [N-(5-tert-Butyl-isoxazol-3-yl)-2-cyclohexanesulfonyl-2-methyl-propionamide],0.2,agonistic activity,–
CC(C)(C)c1cc(NC(=O)C(C)(C)S(=O)(=O)CC2CCCCC2)no1 [N-(5-tert-Butyl-isoxazol-3-yl)-2-cyclohexylmethanesulfonyl-2-methyl-propionamide],0.6,agonistic activity,–
CC(C)(C)c1cc(NC(=O)C(C)(C)S(=O)(=O)C2CCCC2)no1 [N-(5-tert-Butyl-isoxazol-3-yl)-2-cyclopentanesulfonyl-2-methyl-propionamide],2.4,agonistic activity,–
CC(C)(C)c1cc(NC(=O)C(C)(C)S(=O)(=O)C2CC2)no1 [N-(5-tert-Butyl-isoxazol-3-yl)-2-cyclopropanesulfonyl-2-methyl-propionamide],–,agonistic activity,–
CC(C)(C)c1cc(NC(=O)C(C)(C)S(=O)(=O)CC2CC2)no1 [N-(5-tert-Butyl-isoxazol-3-yl)-2-cyclopropylmethanesulfonyl-2-methyl-propionamide],34.3,agonistic activity,–
CCS(=O)(=O)C(C)(C)C(=O)Nc1cc(C(C)(C)C)on1 [N-(5-tert-Butyl-isoxazol-3-yl)-2-ethanesulfonyl-2-methyl-propionamide],–,agonistic activity,–
CC(C)(C)c1cc(NC(=O)C(C)(C)S(C)(=O)=O)no1 [N-(5-tert-Butyl-isoxazol-3-yl)-2-methanesulfonyl-2-methyl-propionamide],–,agonistic activity,–
"CC(C)(C)c1cc(NC(=O)C(C)(C)S(=O)(=O)CC(F)(F)F)no1 [N-(5-tert-Butyl-isoxazol-3-yl)-2-methyl-2-(2,2,2-trifluoro-ethanesulfonyl)-propionamide]",–,agonistic activity,–
CC(C)CS(=O)(=O)C(C)(C)C(=O)Nc1cc(C(C)(C)C)on1 [N-(5-tert-Butyl-isoxazol-3-yl)-2-methyl-2-(2-methyl-propane-1-sulfonyl)-propionamide],44.6,agonistic activity,–
CC(C)(C)c1cc(NC(=O)C(C)(C)S(=O)(=O)C(C)(C)C)no1 [N-(5-tert-Butyl-isoxazol-3-yl)-2-methyl-2-(2-methyl-propane-2-sulfonyl)-propionamide],–,agonistic activity,–
CC(C)CCS(=O)(=O)C(C)(C)C(=O)Nc1cc(C(C)(C)C)on1 [N-(5-tert-Butyl-isoxazol-3-yl)-2-methyl-2-(3-methyl-butane-1-sulfonyl)-propionamide],0.2,agonistic activity,–
CC(C)(C)c1cc(NC(=O)C(C)(C)S(=O)(=O)CCCc2ccccc2)no1 [N-(5-tert-Butyl-isoxazol-3-yl)-2-methyl-2-(3-phenyl-propane-1-sulfonyl)-propionamide],–,agonistic activity,–
CC(C)(C)c1cc(NC(=O)C(C)(C)S(=O)(=O)C2(C)CCOCC2)no1 [N-(5-tert-Butyl-isoxazol-3-yl)-2-methyl-2-(4-methyl-tetrahydro-pyran-4-sulfonyl)-propionamide],9.4,agonistic activity,–

SMILES,EC50 [nM],agonistic activity,"EC50 (CHO cells expressing human CB2R, inhibition of forskolin-stimulated cAMP synthesis, compounds having agonist activity, read-out: CB2 EC50) [nM]"
CC(C)(C)c1cc(NC(=O)C(C)(C)S(=O)(=O)CC2CCNCC2)no1 [N-(5-tert-Butyl-isoxazol-3-yl)-2-methyl-2-(piperidin-4-ylmethanesulfonyl)-propionamide],–,agonistic activity,–
CCCS(=O)(=O)C(C)(C)C(=O)Nc1cc(C(C)(C)C)on1 [N-(5-tert-Butyl-isoxazol-3-yl)-2-methyl-2-(propane-1-sulfonyl)-propionamide],61.9,agonistic activity,–
CC(C)S(=O)(=O)C(C)(C)C(=O)Nc1cc(C(C)(C)C)on1 [N-(5-tert-Butyl-isoxazol-3-yl)-2-methyl-2-(propane-2-sulfonyl)-propionamide],–,agonistic activity,–
CC(C)(C)c1cc(NC(=O)C(C)(C)S(=O)(=O)CC2CCCO2)no1 (stereo not drawn) [N-(5-tert-Butyl-isoxazol-3-yl)-2-methyl-2-(tetrahydro-furan-2-ylmethanesulfonyl)-propionamide],70.5,agonistic activity,–
CC(C)(C)c1cc(NC(=O)C(C)(C)S(=O)(=O)CC2CCCCO2)no1 (stereo not drawn) [N-(5-tert-Butyl-isoxazol-3-yl)-2-methyl-2-(tetrahydro-pyran-2-ylmethanesulfonyl)-propionamide],0.2,agonistic activity,–
CC(C)(C)c1cc(NC(=O)C(C)(C)S(=O)(=O)C2CCOCC2)no1 [N-(5-tert-Butyl-isoxazol-3-yl)-2-methyl-2-(tetrahydro-pyran-4-sulfonyl)-propionamide],–,agonistic activity,0.7
CC(C)(C)c1cc(NC(=O)C(C)(C)S(=O)(=O)CC2CCOCC2)no1 [N-(5-tert-Butyl-isoxazol-3-yl)-2-methyl-2-(tetrahydro-pyran-4-ylmethanesulfonyl)-propionamide],–,agonistic activity,–
CC(C)C(C(=O)Nc1cc(C(C)(C)C)on1)S(=O)(=O)C(C)C (stereo not drawn) [N-(5-tert-Butyl-isoxazol-3-yl)-3-methyl-2-(propane-2-sulfonyl)-butyramide],–,agonistic activity,–
CC(C)(C(=O)Nc1nc2ccccc2o1)S(=O)(=O)CC1CCOCC1 [N-Benzooxazol-2-yl-2-methyl-2-(tetrahydro-pyran-4-ylmethanesulfonyl)-propionamide],–,agonistic activity,–
CCCS(=O)(=O)C(C)(C)C(=O)Nc1nc2ccccc2s1 [N-Benzothiazol-2-yl-2-methyl-2-(propane-1-sulfonyl)-propionamide],–,agonistic activity,–
CC(C)S(=O)(=O)C(C)(C)C(=O)Nc1nc2ccccc2s1 [N-Benzothiazol-2-yl-2-methyl-2-(propane-2-sulfonyl)-propionamide],–,agonistic activity,–
CC(C)(C(=O)Nc1nc2ccccc2s1)S(=O)(=O)CC1CCOCC1 [N-Benzothiazol-2-yl-2-methyl-2-(tetrahydro-pyran-4-ylmethanesulfonyl)-propionamide],27.9,agonistic activity,–
CC(C)S(=O)(=O)C(C)(C)C(=O)Nc1cc2ccccc2cn1 [N-Isoquinolin-3-yl-2-methyl-2-(propane-2-sulfonyl)-propionamide],–,agonistic activity,–
CC(C)(C(=O)Nc1cc2ccccc2cn1)S(=O)(=O)CC1CCOCC1 [N-Isoquinolin-3-yl-2-methyl-2-(tetrahydro-pyran-4-ylmethanesulfonyl)-propionamide],99.1,agonistic activity,–
"CCCS(=O)(=O)C(C)(C)C(=O)Nc1cc(CC(C)(C)C)no1 [N-[3-(2,2-Dimethyl-propyl)-isoxazol-5-yl]-2-methyl-2-(propane-1-sulfonyl)-propionamide]",–,agonistic activity,–
"CC(C)(C)Cc1cc(NC(=O)C(C)(C)S(=O)(=O)CC2CCOCC2)on1 [N-[3-(2,2-Dimethyl-propyl)-isoxazol-5-yl]-2-methyl-2-(tetrahydro-pyran-4-ylmethanesulfonyl)-propionamide]",74.3,agonistic activity,–
CC(C)(C(=O)Nc1nc(-c2ccc(Cl)cc2)cs1)S(=O)(=O)C1CCCC1 [N-[4-(4-Chloro-phenyl)-thiazol-2-yl]-2-cyclopentanesulfonyl-2-methyl-propionamide],1.5,agonistic activity,–
CCCS(=O)(=O)C(C)(C)C(=O)Nc1nc(-c2ccc(Cl)cc2)cs1 [N-[4-(4-Chloro-phenyl)-thiazol-2-yl]-2-methyl-2-(propane-1-sulfonyl)-propionamide],13,agonistic activity,–
CC(C)S(=O)(=O)C(C)(C)C(=O)Nc1nc(-c2ccc(Cl)cc2)cs1 [N-[4-(4-Chloro-phenyl)-thiazol-2-yl]-2-methyl-2-(propane-2-sulfonyl)-propionamide],44.9,agonistic activity,–
